Laboratory results from paper PMC7402526, “An in vitro quantitative systems pharmacology approach for deconvolving mechanisms of drug-induced, multilineage cytopenias” (PLoS Computational Biology, 2020).

Assays:
Type in all cases: cell-based, human
[1] = system: early erythroid cells (Eryth I); experiment: MLTA, ErythI: concentration-response and QSP model fit
Outline: (§1)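 Freeze-thawed primary human bone marrow CD34+ cells were cultured 6 days in SFEM II with a cytokine cocktail, drug added on day 0. Subsets were counted by 17-parameter flow cytometry with TruCount beads and normalized to vehicle wells. An Emax QSP model (Emax 0–2, L1 regularization) was fitted to these counts.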

[2] = system: monocyte progenitors (monocyte prog); experiment: MLTA, MonoP: concentration-response and QSP model fit
Outline: as §1

[3] = system: hematopoietic stem cells (HSCs); experiment: Multi-lineage toxicity assay (MLTA), HSCs: concentration-response and QSP model fit
Outline: (§2)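 Drug was added at time 0 to thawed human bone marrow CD34+ cells in SFEM II plus a cytokine cocktail. After 6 days at 37°C, subsets were counted by surface-marker flow with TruCount beads. Vehicle-normalized, donor-pooled data then fed an Emax model separating anti-proliferative from cell-killing effects.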

[4] = system: monocytes (monocyte-lin); experiment: MLTA, Mono: concentration-response and QSP model fit; settings: Homo sapiens, Monocyte, 144 h
Outline: as §1

[5] = system: granulocyte progenitor (Gran-lin prog); experiment: MLTA, GranP: concentration-response and QSP model fit; settings: Homo sapiens, 144 h
Outline: as §1

[6] = system: neutrophils (neutrophil-lin); experiment: MLTA, Neut: concentration-response and QSP model fit; settings: Homo sapiens, Neutrophil, 144 h
Outline: as §2

[7] = system: B cells (B-lin); experiment: MLTA, B-lin: concentration-response and QSP model fit; settings: Homo sapiens, B-cell, 144 h
Outline: as §2

[8] = cell-killing component, max(0, EmaxT-1)
[9] = QSP model fit of 6-day MLTA data

## CC(=O)O[C@@]12CO[C@@H]1C[C@H](O)[C@@]1(C)C(=O)[C@H](O)C3=C(C)[C@@H](OC(=O)[C@H](O)[C@@H](NC(=O)OC(C)(C)C)c4ccccc4)C[C@@](O)([C@@H](OC(=O)c4ccccc4)[C@H]21)C3(C)C [docetaxel]
[1]; Homo sapiens, 144 h, QSP model fit of 6-day MLTA data, read-out: EC50ErythI
  EC50: 8.14 nM
[1]; Homo sapiens, 144 h, dose 0.2 nM, 6 days, normalized to vehicle control, read-out: ErythI normalized cell count
  activity at 0.0002 µM: 112%
[1]; Homo sapiens, 144 h, dose 1 nM, 6 days, normalized to vehicle control, read-out: ErythI normalized cell count
  activity at 0.001 µM: 110%
[1]; Homo sapiens, 144 h, dose 5 nM, 6 days, normalized to vehicle control, read-out: ErythI normalized cell count
  activity at 0.005 µM: 5.32%
[1]; Homo sapiens, 144 h, dose 25 nM, 6 days, normalized to vehicle control, read-out: ErythI normalized cell count
  activity at 0.025 µM: 0.559%
[1]; Homo sapiens, 144 h, dose 100 nM, 6 days, normalized to vehicle control, read-out: ErythI normalized cell count
  activity at 0.1 µM: 0.401%
[1]; Homo sapiens, 144 h, dose 500 nM, 6 days, normalized to vehicle control, read-out: ErythI normalized cell count
  activity at 0.5 µM: 0.687%
[1]; Homo sapiens, 144 h, dose 2500 nM, 6 days, normalized to vehicle control, read-out: ErythI normalized cell count
  activity at 2.5 µM: 0.409%
[1]; Homo sapiens, 144 h, parameter from QSP model fitting, read-out: Emax_drug_ErythroidI
  Emax: 173%
[1]; [8]
  EmaxCK,ErythI: 0.726 day⁻¹
[2]; Homo sapiens, Monocyte, 144 h, QSP model fit of 6-day MLTA data, read-out: EC50MonoP
  EC50: 7.88 nM
[2]; Homo sapiens, Monocyte, 144 h, dose 0.2 nM, 6 days, normalized to vehicle control, read-out: MonoPs normalized cell count
  activity at 0.0002 µM: 110%
[2]; Homo sapiens, Monocyte, 144 h, dose 1 nM, 6 days, normalized to vehicle control, read-out: MonoPs normalized cell count
  activity at 0.001 µM: 107%
[2]; Homo sapiens, Monocyte, 144 h, dose 5 nM, 6 days, normalized to vehicle control, read-out: MonoPs normalized cell count
  activity at 0.005 µM: 7.72%
[2]; Homo sapiens, Monocyte, 144 h, dose 25 nM, 6 days, normalized to vehicle control, read-out: MonoPs normalized cell count
  activity at 0.025 µM: 0.204%
[2]; Homo sapiens, Monocyte, 144 h, dose 100 nM, 6 days, normalized to vehicle control, read-out: MonoPs normalized cell count
  activity at 0.1 µM: 0.162%
[2]; Homo sapiens, Monocyte, 144 h, dose 500 nM, 6 days, normalized to vehicle control, read-out: MonoPs normalized cell count
  activity at 0.5 µM: 0.302%
[2]; Homo sapiens, Monocyte, 144 h, dose 2500 nM, 6 days, normalized to vehicle control, read-out: MonoPs normalized cell count
  activity at 2.5 µM: 0.319%
[2]; Homo sapiens, Monocyte, 144 h, parameter from QSP model fitting, read-out: Emax_drug_MonoP
  Emax: 146%
[2]; [8]
  EmaxCK,MonoP: 0.459 day⁻¹
[3]; Homo sapiens, Hematopoietic stem cell, 144 h, QSP model fit of 6-day MLTA data
  EC50: 33.7 nM
[3]; Homo sapiens, Hematopoietic stem cell, 144 h, dose 0.2 nM, 6 days, normalized to vehicle control, read-out: HSCs normalized cell count
  activity at 0.0002 µM: 97.9%
[3]; Homo sapiens, Hematopoietic stem cell, 144 h, dose 1 nM, 6 days, normalized to vehicle control, read-out: HSCs normalized cell count
  activity at 0.001 µM: 104%
[3]; Homo sapiens, Hematopoietic stem cell, 144 h, dose 5 nM, 6 days, normalized to vehicle control, read-out: HSCs normalized cell count
  activity at 0.005 µM: 64.6%
[3]; Homo sapiens, Hematopoietic stem cell, 144 h, dose 25 nM, 6 days, normalized to vehicle control, read-out: HSCs normalized cell count
  activity at 0.025 µM: 4%
[3]; Homo sapiens, Hematopoietic stem cell, 144 h, dose 100 nM, 6 days, normalized to vehicle control, read-out: HSCs normalized cell count
  activity at 0.1 µM: 0.534%
[3]; Homo sapiens, Hematopoietic stem cell, 144 h, dose 500 nM, 6 days, normalized to vehicle control, read-out: HSCs normalized cell count
  activity at 0.5 µM: 2.32%
[3]; Homo sapiens, Hematopoietic stem cell, 144 h, dose 2500 nM, 6 days, normalized to vehicle control, read-out: HSCs normalized cell count
  activity at 2.5 µM: 0.559%
[3]; Homo sapiens, Hematopoietic stem cell, 144 h, parameter from QSP model fitting, read-out: Emax_drug_HSC
  Emax: 130%
[3]; [8]
  EmaxCK,HSC: 0.3 day⁻¹
[4]; [9]
  EC50: 9.03 nM
[4]; dose 0.2 nM, 6 days, normalized to vehicle control, read-out: Mon normalized cell count
  activity at 0.0002 µM: 103%
[4]; dose 1 nM, 6 days, normalized to vehicle control, read-out: Mon normalized cell count
  activity at 0.001 µM: 106%
[4]; dose 5 nM, 6 days, normalized to vehicle control, read-out: Mon normalized cell count
  activity at 0.005 µM: 2.6%
[4]; dose 25 nM, 6 days, normalized to vehicle control, read-out: Mon normalized cell count
  activity at 0.025 µM: 1.23%
[4]; dose 100 nM, 6 days, normalized to vehicle control, read-out: Mon normalized cell count
  activity at 0.1 µM: 1.06%
[4]; dose 500 nM, 6 days, normalized to vehicle control, read-out: Mon normalized cell count
  activity at 0.5 µM: 2.03%
[4]; dose 2500 nM, 6 days, normalized to vehicle control, read-out: Mon normalized cell count
  activity at 2.5 µM: 1.39%
[4]; parameter from QSP model fitting, read-out: Emax_drug_Mono
  Emax: 19.8%
[5]; dose 0.2 nM, 6 days, normalized to vehicle control, read-out: GranPs normalized cell count
  activity at 0.0002 µM: 110%
[5]; dose 1 nM, 6 days, normalized to vehicle control, read-out: GranPs normalized cell count
  activity at 0.001 µM: 110%
[5]; dose 5 nM, 6 days, normalized to vehicle control, read-out: GranPs normalized cell count
  activity at 0.005 µM: 4.64%
[5]; dose 25 nM, 6 days, normalized to vehicle control, read-out: GranPs normalized cell count
  activity at 0.025 µM: 0%
[5]; dose 100 nM, 6 days, normalized to vehicle control, read-out: GranPs normalized cell count
  activity at 0.1 µM: 0.0204%
[5]; dose 500 nM, 6 days, normalized to vehicle control, read-out: GranPs normalized cell count
  activity at 0.5 µM: 0.0147%
[5]; dose 2500 nM, 6 days, normalized to vehicle control, read-out: GranPs normalized cell count
  activity at 2.5 µM: 0.0152%
[5]; parameter from QSP model fitting, read-out: Emax_drug_GranP
  Emax: 0.04%
[6]; [9]
  EC50: 13.7 nM
[6]; dose 0.2 nM, 6 days, normalized to vehicle control, read-out: Neut normalized cell count
  activity at 0.0002 µM: 90.8%
[6]; dose 1 nM, 6 days, normalized to vehicle control, read-out: Neut normalized cell count
  activity at 0.001 µM: 99.6%
[6]; dose 5 nM, 6 days, normalized to vehicle control, read-out: Neut normalized cell count
  activity at 0.005 µM: 0.23%
[6]; dose 25 nM, 6 days, normalized to vehicle control, read-out: Neut normalized cell count
  activity at 0.025 µM: 0.177%
[6]; dose 100 nM, 6 days, normalized to vehicle control, read-out: Neut normalized cell count
  activity at 0.1 µM: 0.139%
[6]; dose 500 nM, 6 days, normalized to vehicle control, read-out: Neut normalized cell count
  activity at 0.5 µM: 0.0727%
[6]; dose 2500 nM, 6 days, normalized to vehicle control, read-out: Neut normalized cell count
  activity at 2.5 µM: 0%
[6]; parameter from QSP model fitting, read-out: Emax_drug_Neut
  Emax: 23.2%
[7]; [9]
  EC50: 10.4 nM
[7]; dose 0.2 nM, 6 days, normalized to vehicle control, read-out: B-lin normalized cell count
  activity at 0.0002 µM: 89%
[7]; dose 1 nM, 6 days, normalized to vehicle control, read-out: B-lin normalized cell count
  activity at 0.001 µM: 94.8%
[7]; dose 5 nM, 6 days, normalized to vehicle control, read-out: B-lin normalized cell count
  activity at 0.005 µM: 3.47%
[7]; dose 25 nM, 6 days, normalized to vehicle control, read-out: B-lin normalized cell count
  activity at 0.025 µM: 0.169%
[7]; dose 100 nM, 6 days, normalized to vehicle control, read-out: B-lin normalized cell count
  activity at 0.1 µM: 1.5%
[7]; dose 500 nM, 6 days, normalized to vehicle control, read-out: B-lin normalized cell count
  activity at 0.5 µM: 1.33%
[7]; dose 2500 nM, 6 days, normalized to vehicle control, read-out: B-lin normalized cell count
  activity at 2.5 µM: 0.24%
[7]; parameter from QSP model fitting, read-out: Emax_drug_B
  Emax: 102%
